The text below walks through data of patent US9334280B2, “Synthetic rigidin analogues as anticancer agents, salts, solvates and prodrugs thereof, and method of producing same” (New Mexico Technical Research Foundation, priority 2012, dated 2016).

The test system of one test is HeLa cells. In words: Flow cytometric cell cycle analysis (Vybrant Orange). The following applies: 0.1 μM, 24 h. The format is cell-based, human. Here is the method: To assess the effects of the analogues on the cell cycle, cell cycle analysis was performed. 70-80% confluent HeLa cells were trypsinized and seeded at an initial density of 2×10^5 cell per well into 6 well plates in DMEM supplemented with 10% FBS, 100 mg/L penicillin G and 100 mg/L streptomycin. The cells were allowed to adhere overnight and before treatment with compounds of Formula I at concentrations ranging from 0.1 to 10 microM. After 24 hrs, the cells were washed 3× with DMEM, trypsinized, pelleted, and re-suspended in 200 microL of culture medium containing 10 microM (2 microL/mL) vybrant orange dye. The samples in the labeling solution were transferred into Falcon tubes and incubated in a water bath for 30 mins at 37° C. The samples were then analyzed using a Becton Dickinson FACscan flow cytometer with CellQuest software. A 488 nm laser was utilized using parameters that can be found in Appendix B; 10,000 events were collected for analysis. Cells treated with 0.1% DMSO were used as a negative control and cells treated with colchicine were used as a positive control.
In further anticancer evaluation of compounds of Formula I cell cycle analysis was performed using the cell permeable DNA binding dye Vybrant Orange. In a normal population, cells are distributed among the three major phases of the cell cycle, G0/G1 in which there is one set of paired chromosomes per cell (2n), followed by the S or synthesis phase in which DNA is synthesized in preparation for division (there is a variable amount of DNA present during this phase) and finally G2/M phase in which the chromosomes of each cell have now been duplicated (4n). This DNA content can be measured using fluorescent DNA selective probes such as Vybrant Orange that produce signals that are proportional to DNA mass per cell. This dye interacts with double stranded DNA (dsDNA) in living cells and becomes fluorescent upon binding and thus can be used to track DNA content as cells progress through the various phases of the cell cycle using flow cytometry. Cell cycle analysis was performed on HeLa cells using Rig8 at various concentrations above and below the respective GI50. Since colchicine is a known antimitotic drug, it was utilized as a positive control, while HeLa cells treated with 0.1% DMSO were used as a negative control. FIG. 6 illustrates the results of this analysis using Rig 8 on HeLa cells.
(In general: Flow cytometry measures light scatter and fluorescence of single cells or particles in a stream.)

The test system of a further test is HeLa and MCF-7 cells. Nature of the test: MTT antiproliferative activity, statements for HeLa and MCF-7. The following applies: HeLa and MCF-7, 48 h. The format is cell-based, human. The protocol: (§1) To evaluate antiproliferative properties of the compounds of Formula I, mitochondrial dehydrogenase activities were measured using the MTT assay. The cell lines were prepared by trypsinizing and seeding […] cells per well into microplates. All compounds were reconstituted in dimethyl sulfoxide (DMSO) at a concentration of either 100 mM or 25 mM prior to treatment. The cells were grown for 24 hrs before treatment at concentrations ranging from 0.004 to 100 microM and incubated for 48 hrs in 200 microL media. 20 microL of MTT reagent in serum free medium (5 mg/mL) was added to each well and incubated further for 2 hrs. Media was removed and the resulting formazan crystals were re-solubilized in 100 microL of DMSO and the optical density (OD) was measured using a Thermomax Molecular Device plate reader at a wavelength of 490 nm. The experiments were performed in quadruplicate and repeated at least twice for each compound per cell line. Cells treated with 0.1% DMSO were used as a negative control, while phenyl arsine oxide (PAO) was used as a positive killing control.
The obtained compounds were evaluated for antiproliferative activities using the HeLa cell line as a model for human cervical adenocarcinoma and MCF-7 cells as a model for breast adenocarcinoma. The cells were treated with each compound for 48 h, and cell viability was assessed using the MTT method (Table 5).
(§2) To evaluate antiproliferative properties of the synthesized compounds, the MTT assay was used. The cell lines were assessed by trypsinizing each cell line and seeding 4×10^3 cells per well into 96-well plates. All compounds were dissolved in DMSO at a concentration of either 100 mM or 50 mM prior to cell treatment. The cells were grown for 24 h and then treated with compounds at concentrations ranging from 0.04 to 100 μM and incubated for 48 h in 200 μL media. 20 μL of MTT reagent in serum free medium (5 mg/mL) was added to each well and incubated further for 2 h. Media was removed, and the resulting formazan crystals were re-solubilized in 200 μL of DMSO. A490 was measured using a Thermomax Molecular Device plate reader. The experiments were performed in quadruplicate and repeated at least twice for each compound per cell line. Cells treated with 0.1% DMSO were used as a control, and 1 μM phenyl arsine oxide (PAO) was used as a positive killing control.

Test [1] concerns HeLa cervical adenocarcinoma cells. Nature of the test: MTT antiproliferative assay, HeLa. It is filed as cell-based. To be noted: Homo sapiens, MTT, ± SD. The protocol:
(§3) Human T-cell leukemia cell line Jurkat (ATCC TIB-152, E6-1 clone) was cultured in RPMI-1640 (Invitrogen) supplemented with 10% FBS (Invitrogen), 100 mg/L penicillin G, 100 mg/L streptomycin, 1.0 mM sodium pyruvate, 1.5 g/L sodium bicarbonate, and 4.5 g/L glucose (all from Sigma). Human cervical cancer cell line HeLa (ATCC S3) was cultured in DMEM (Invitrogen) supplemented with 10% FBS, 100 mg/L penicillin G, and 100 mg/L streptomycin. MCF-7 (human mammary carcinoma) cells were cultured in DMEM supplemented with 1.0 mM sodium pyruvate, 1% GlutaMax™-1 (Invitrogen), 100 μg/mL penicillin, 100 μg/mL streptomycin, and 10% FBS. Human uterine sarcoma MES-SA and MES-SA/Dx5 cells were cultured in RPMI-1640 medium supplemented with 10% FBS, 100 mg/L penicillin G and 100 mg/L streptomycin. All cells were incubated at 37° C. in a humidified atmosphere with 5% CO2. The other cell lines were maintained in a similar fashion as previously described.
as §1
(§4) Human cancer cell lines were obtained from the American Type Culture Collection (ATCC, Manassas, Va., USA), the European Collection of Cell Culture (ECACC, Salisbury, UK) and the Deutsche Sammlung von Mikroorganismen and Zellkulturen (DSMZ, Braunschweig, Germany). Human cervical adenocarcinoma HeLa cells were cultured in DMEM supplemented with 10% fetal bovine serum (FBS). Human mammary carcinoma MCF-7 cells were cultured in RPMI supplemented with 10% FBS. The U87 and U373 cells were cultured in DMEM culture medium (Lonza code 12-136F, Vervier, Belgium), while the SKMEL-28 and A549 cells were cultured in RPMI culture medium (Lonza; code 12-115F) supplemented with 10% heat-inactivated FBS (Lonza, FBS South America code DE14-801F). […] All cell lines were cultured in T25 flasks, maintained and grown at 37° C., 95% humidity, 5% CO2.
as §2
(Tetrazolium dyes change colour on reduction, which living cells bring about.)

Test [2] concerns MCF-7 mammary gland adenocarcinoma cells. Nature of the test: MTT antiproliferative assay, MCF-7. It is filed as cell-based. To be noted: Homo sapiens, MCF7, 48 h, MTT, ± SD. Here is the method: as §3, §1, §4, §2
A further test concerns U-87 glioblastoma cells. Nature of the test: MTT antiproliferative assay, U-87. It is filed as cell-based. To be noted: Homo sapiens, Table 6, 48 h, ± SD, read-out: GI50 in vitro Values, U-87. The protocol:
as §4, §2

For test [3], the system named is A549 non-small-cell lung cancer cells. Nature of the test: MTT antiproliferative assay, A549. It is filed as cell-based. The following applies: Homo sapiens, Table 6, 48 h, ± SD, read-out: GI50 in vitro Values, A549. The protocol: as §1, §4, §2
For test [4], the system named is MES-SA/Dx5 uterine sarcoma cells (overexpress p-gp). In words: MTT antiproliferative assay, MDR MES-SA/Dx5. It is filed as cell-based, human. The following applies: MES-SA/Dx5 vs MES-SA. The protocol: as §3, §1
The cells of such tumors are referred to as multidrug resistant (MDR). Thus, we assessed the compounds of Formula I for antiproliferative activity in an MDR cancer cell line. This was done using the uterine sarcoma cells, MES-SA/Dx5, which overexpress p-gp. The parental drug-responsive MES-SA cell line was used as control.

[5] abbreviates: Table 5, 48 h, read-out: cell viability GI50, HeLa.
Setting [6] is: Table 5, read-out: cell viability GI50, MCF-7.
[7] abbreviates: Table 6, 48 h, read-out: GI50 in vitro Values, HeLa.
The mark [8] stands for this setting: Table 6, read-out: GI50 in vitro Values, MCF-7.

Each structure is given as a SMILES string. Read-outs that look alike come from different tables or passages of the source.

`COc1cc2c(c(OC)c1OC)-c1ccc(OC)c(=O)cc1[C@@H](NC(C)=O)CC2` [Colchicine, reference compound]: in the test with HeLa cells, the “% Relative DNA Content, G0/G1” value was determined as 28.7 ± 1.2%; the “% Relative DNA Content, G2/M” value came to 53.6 ± 1.3%; the “% Relative DNA Content, S” value came to 15.7 ± 1.9%.

In the case of `O=C(c1ccccc1)c1[nH]c2[nH]c(-c3ccccn3)nc(=O)c2c1-c1ccccc1` [Compound 5], the “antiproliferative activity (potency in words)” value (shortened to “antiproliferative activity”) in the test on HeLa and MCF-7 cells is “double to single digit micromolar”. The concentration for 50% growth inhibition (GI50) (commonly the concentration that inhibits growth by half) in test [1] (setting [5]) stood at 2700 ± 200 nM; in test [2] (setting [6]) it was 2500 ± 300 nM.

Take `O=C(c1ccccc1)c1[nH]c2[nH]c(-c3ccco3)nc(=O)c2c1-c1ccccc1` [Compound 6]: the “antiproliferative activity” value with HeLa and MCF-7 cells was “double to single digit micromolar”. Further, the GI50 in test [1] (setting [5]) is 18400 ± 1800 nM; in test [2] (setting [6]) it was 23100 ± 500 nM.

For the compound `CCOc1nc(=O)c2c(-c3ccccc3)c(C(=O)c3ccccc3)[nH]c2[nH]1` [Compound 8], the “antiproliferative activity” value in the test on HeLa and MCF-7 cells was “double to single digit micromolar”. For the same compound, the GI50 in test [1] (setting [5]) came to 11100 ± 400 nM; in test [2] (setting [6]) it was 10400 ± 800 nM.

For `CC(C)c1nc(=O)c2c(-c3ccccc3)c(C(=O)c3ccccc3)[nH]c2[nH]1` [Compound 9], the “antiproliferative activity” value in the test with HeLa and MCF-7 cells is recorded as “double to single digit micromolar”. Also, the concentration for 50% growth inhibition (GI50) in test [1] (setting [5]) was determined as 9100 ± 300 nM; in test [2] (setting [6]) it was 8300 ± 800 nM.

With `Cc1nc(=O)c2c(-c3ccccc3)c(C(=O)c3ccccc3)[nH]c2[nH]1` [Compound 13, 6-Benzoyl-2-methyl-5-phenyl-1H-pyrrolo[2,3-d]pyrimidin-4(7H)-one], the “antiproliferative activity” value with HeLa and MCF-7 cells is given as “nanomolar”. The GI50 in the test with U-87 glioblastoma cells is 77 ± 2 nM; in test [1] (setting [5]), 29 ± 1 nM; in test [1] (setting [7]), 29 ± 1 nM; in test [3] it was 250 ± 10 nM; in test [2] (setting [6]), 35 ± 3 nM; in test [2] (setting [8]), 35 ± 3 nM.

Consider `C#CCCCc1nc(=O)c2c(-c3ccccc3)c(C(=O)c3ccccc3)[nH]c2[nH]1` [Compound 17, 6-Benzoyl-2-(pent-4-ynyl)-5-phenyl-1H-pyrrolo[2,3-d]pyrimidin-4(7H)-one], for which the “antiproliferative activity” value in the test on HeLa and MCF-7 cells is “nanomolar”. In test [2] (setting [6]), the GI50 stood at 45 ± 1 nM.

Consider `Cc1nc(=O)c2c(-c3cccc(Cl)c3)c(C(=O)c3ccccc3)[nH]c2[nH]1` [Compound 18, 6-Benzoyl-5-(3-chlorophenyl)-2-methyl-1H-pyrrolo[2,3-d]pyrimidin-4(7H)-one], for which the GI50 with U-87 glioblastoma cells turned out to be 900 ± 160 nM; in test [1] (setting [7]) it was 270 ± 10 nM; in test [3], 600 ± 230 nM; in test [2] (setting [8]) it was 230 nM.

As to `Cc1nc(=O)c2c(-c3cccc(Br)c3)c(C(=O)c3ccccc3)[nH]c2[nH]1` [Compound 19, 6-Benzoyl-5-(3-bromophenyl)-2-methyl-1H-pyrrolo[2,3-d]pyrimidin-4(7H)-one], the GI50 in the test with U-87 glioblastoma cells came to 940 ± 120 nM; in test [1] (setting [7]), 290 ± 10 nM; in test [3], 650 ± 190 nM; in test [2] (setting [8]), 270 ± 30 nM.

In the case of `Cc1nc(=O)c2c(-c3cccc(F)c3)c(C(=O)c3ccccc3)[nH]c2[nH]1` [Compound 20, 6-Benzoyl-5-(3-fluorophenyl)-2-methyl-1H-pyrrolo[2,3-d]pyrimidin-4(7H)-one], the GI50 stood at 1700 ± 100 nM in the test with U-87 glioblastoma cells, 290 ± 30 nM in test [1] (setting [7]), 1000 ± 900 nM in test [3] and 360 ± 20 nM in test [2] (setting [8]).

Regarding `Cc1nc(=O)c2c(-c3cc(Br)cc(Br)c3)c(C(=O)c3ccccc3)[nH]c2[nH]1` [Compound 23, 6-Benzoyl-5-(3,5-dibromophenyl)-2-methyl-1H-pyrrolo[2,3-d]pyrimidin-4(7H)-one], the GI50 worked out at 720 ± 60 nM in the test with U-87 glioblastoma cells, 290 ± 10 nM in test [1] (setting [7]), 380 ± 80 nM in test [3] and 270 ± 10 nM in test [2] (setting [8]).

For `CC(=O)O[C@H]1C(=O)[C@@]2(C)[C@H]([C@H](OC(=O)c3ccccc3)[C@]3(O)C[C@H](OC(=O)[C@H](O)[C@@H](NC(=O)c4ccccc4)c4ccccc4)C(C)=C1C3(C)C)[C@]1(OC(C)=O)CO[C@@H]1C[C@@H]2O` [Taxol, reference compound], the “times less potent against the MDR cells compared with the parental MES-SA cells” value in test [4] is “ca. 1000 times”.

As for `CC[C@]1(O)C[C@@H]2CN(CCc3c([nH]c4ccccc34)[C@@](C(=O)OC)(c3cc4c(cc3OC)N(C)[C@H]3[C@@](O)(C(=O)OC)[C@H](OC(C)=O)[C@]5(CC)C=CCN6CC[C@]43[C@@H]65)C2)C1` [Vinblastine, reference compound], the “times less potent against the MDR cells compared with the parental MES-SA cells” value in test [4] is listed as “ca. 1000 times”.
